The text below walks through data of article PMC6983046, “Meroterpenoids from the Fungus Ganoderma sinensis and First Absolute Configuration Clarification of Zizhine H” (Molecules, 2019).

Series [1] relates to KYSE30: human esophageal cancer cells. As to the kind of experiment: Cell viability (CCK8) assay, KYSE30. The settings on record: for cytotoxic activity (cells sensitive to compound), KYSE30: result in words. It is filed as cell-based. As for the experimental part: (§1) All cell lines were purchased from the Cell Bank of China Science Academy (Shanghai, China) and maintained in Dulbecco’s Modified Eagle Medium (DMEM) supplemented with 10% fetal bovine serum and 100 U/mL penicillin-streptomycin, and incubated at 37 °C in an atmosphere of 5% CO2. Cell viability was evaluated by the CCK8 assay kit (Dojindo Laboratories, Tokyo, Japan) according to the manufacturer’s instructions. Exponentially growing cells were seeded at 2–8 × 10^3 cells per well in 96-well culture plates for 24 h. Cells were exposed to increasing concentrations (0–80 μM) of 4, 5, 6, or 5-FU for 48 h. The equal volume of DMSO was used as the solvent control. CCK8 solution (10 μL) was added to each well and incubated for another 1–4 h. Light absorbance of the solution was measured at 450 nm (Epoch 2; BioTek Instruments, Inc. Winooski, VT, USA). The IC50 values were calculated using the GraphPad prism 7 and analyzed by fitting a curve using nonlinear regression. page 53: Figure S63. The calculated and the experimental ECD spectra of 5 and 6. Figure S64. Cytotoxic effects of compound-4,compound-5, compound-6 and 5-FU on human cancer cells (A, B, C) and normal cells (D) Cells were treated with various concentrations of compound-4,compound-5, compound-6 and 5-FU for 48 h. Cytotoxic effect of the compounds was determined by CCK8 assay. Percentages of viable cells were calculated by comparing treated and solvent control cells. Data are the mean ± S.D. of three replicates. […]

Series [2] concerns BGC-823: human gastric cancer cells. The experiment in a line: Cell viability (CCK8) assay, BGC-823. As to conditions: BGC-823 cells; for IC50: CCK8, 48 h; for cytotoxic activity (cells sensitive to compound), BGC-823: result in words. It is filed as cell-based. As for the experimental part: as §1
For series [3], the system named is A549: human lung cancer cells. The experiment in a line: Cell viability (CCK8) assay, A549. The series is classed as cell-based. As to conditions: for IC50: CCK8, 48 h. As for the experimental part:
as §1

Series [4] can be described thus: Cell viability (CCK8) assay, HDF normal cells. The settings on record: human, HDF cells (normal human embryonic lung fibroblasts), CCK8, 48 h. The series is classed as cell-based, human. As to the method: as §1
Series [5] has as its system HDF: normal human embryonic lung fibroblasts. As to the kind of experiment: Cell viability (CCK8) assay, HDF normal cells. The settings on record: CCK8, 48 h. The series is classed as cell-based. As to the method: as §1
Where [6] appears, read: Homo sapiens, KYSE-30, CCK8, 48 h.

Regarding `CC(=CCCC1=CCC[C@](CC(=O)c2cc(O)ccc2O)(C(=O)O)OC1)CO` [(+)-1, (S,E)-2-(2-(2,5-dihydroxyphenyl)-2-oxoethyl)-6-(5-hydroxy-4-methylpent-3-en-1-yl)-2,3,4,7-tetrahydrooxepine-2-carboxylic acid], the 50% inhibitory concentration (IC50) was above 160 µM in series [1] (setting [6]); above 160 µM in series [2] (Homo sapiens); above 160 µM in series [3] (Homo sapiens, A549, 48 h). This molecule displayed a half-inhibitory concentration (IC50) at 48 h in series [4] above 160 µM.

Regarding `C/C(=C\CCC1=CCC[C@](CC(=O)c2cc(O)ccc2O)(C(=O)O)OC1)COC(=O)/C=C/c1ccc(O)cc1` [(+)-2, (S)-2-(2-(2,5-dihydroxyphenyl)-2-oxoethyl)-6-((E)-5-(((E)-3-(4-hydroxyphenyl)acryloyl)oxy)-4-methylpent-3-en-1-yl)-2,3,4,7-tetrahydrooxepine-2-carboxylic acid], the IC50 in series [1] (setting [6]) is above 160 µM; in series [2] (Homo sapiens) it was above 160 µM; in series [3] (Homo sapiens, A549, 48 h) it was above 160 µM. In series [4], the IC50 at 48 h is above 160 µM.

Regarding `CC(=CCCC1=CCC[C@@](CC(=O)c2cc(O)ccc2O)(C(=O)O)OC1)CO` [(−)-1, (R,E)-2-(2-(2,5-dihydroxyphenyl)-2-oxoethyl)-6-(5-hydroxy-4-methylpent-3-en-1-yl)-2,3,4,7-tetrahydrooxepine-2-carboxylic acid], the concentration for half-maximal inhibition (IC50) was above 160 µM in series [1] (setting [6]); above 160 µM in series [2] (Homo sapiens); above 160 µM in series [3] (Homo sapiens, A549, 48 h). In series [4], this molecule registered a 50% inhibitory concentration (IC50) at 48 h above 160 µM.

In the case of `C/C(=C\CCC1=CCC[C@@](CC(=O)c2cc(O)ccc2O)(C(=O)O)OC1)COC(=O)/C=C/c1ccc(O)cc1` [(−)-2, (R)-2-(2-(2,5-dihydroxyphenyl)-2-oxoethyl)-6-((E)-5-(((E)-3-(4-hydroxyphenyl)acryloyl)oxy)-4-methylpent-3-en-1-yl)-2,3,4,7-tetrahydrooxepine-2-carboxylic acid], the IC50 in series [1] (setting [6]) was above 160 µM; in series [2] (Homo sapiens) it was above 160 µM; in series [3] (Homo sapiens, A549, 48 h), above 160 µM. Further, in series [4], the IC50 at 48 h is above 160 µM.

With `C/C(=C\CC/C(=C/CC/C(=C/Cc1cc(O)ccc1O)C(=O)O)CO)COC(=O)/C=C/c1ccc(O)cc1` [Compound 3, (2Z,5Z,9E)-2-(2-(2,5-dihydroxyphenyl)ethylidene)-6-(hydroxymethyl)-11-(((E)-3-(4-hydroxyphenyl)acryloyl)oxy)-10-methylundeca-5,9-dienoic acid], the concentration for half-maximal inhibition (IC50) in series [1] (setting [6]) is above 160 µM; in series [2] (Homo sapiens), above 160 µM; in series [3] (Homo sapiens, A549, 48 h), above 160 µM. This molecule displayed an IC50 at 48 h in series [4] above 160 µM.

In the case of `COC(=O)/C(=C\C(=O)c1cc(O)ccc1O)CC/C=C(\CO)CC/C=C(\C)COC(=O)/C=C/c1ccc(O)cc1` [Compound 4, (2Z,5Z,9E)-methyl 2-(2-(2,5-dihydroxyphenyl)-2-oxoethylidene)-6-(hydroxymethyl)-11-(((E)-3-(4-hydroxyphenyl)acryloyl)oxy)-10-methylundeca-5,9-dienoate], the half-maximal inhibitory concentration (IC50) in series [1] (setting [6]) is above 160 µM; in series [2] (Homo sapiens), above 160 µM; in series [3] it was 72.1 ± 8.7 µM; in series [3] (Homo sapiens, A549, 48 h) it was 63.4 to 80.8 µM. In series [3] (result in words), the “cytotoxic activity (cells sensitive to compound), A549” value was “sensitive”. Also, in series [4], the IC50 at 48 h was above 160 µM.

For the molecule `C/C(=C\C[C@H](O)/C(=C/CCC1=C[C@H](c2cc(O)ccc2O)OC1=O)CO)COC(=O)/C=C/c1ccc(O)cc1` [Compound 5, (E)-(S,2E,6E)-9-((R)-5-(2,5-dihydroxyphenyl)-2-oxo-2,5-dihydrofuran-3-yl)-5-hydroxy-6-(hydroxymethyl)-2-methylnona-2,6-dien-1-yl 3-(4-hydroxyphenyl)acrylate], the IC50 in series [1] (setting [6]) is 76.3 ± 1.93 µM; in series [2] (Homo sapiens), 59.2 ± 2.73 µM; in series [3] (Homo sapiens, A549, 48 h) it was above 160 µM. Moreover, the “cytotoxic activity (cells sensitive to compound), KYSE30” value in series [1] is on record as “sensitive”. Moreover, in series [2], the “cytotoxic activity (cells sensitive to compound), BGC-823” value is “sensitive”. In series [4], this molecule yielded an IC50 at 48 h above 160 µM.

In the case of `O=c1[nH]cc(F)c(=O)[nH]1` [Compound 5-FU, reference compound], the IC50 was determined as 8.43 ± 0.19 µM in series [1] (CCK8, 48 h); 37.7 ± 1.87 µM in series [2]; 35 ± 2.42 µM in series [3]; 51.1 ± 2.43 µM in series [5].

As for `C/C(=C\C[C@H](O)/C(=C/CCC1=C[C@@H](c2cc(O)ccc2O)OC1=O)CO)COC(=O)/C=C/c1ccc(O)cc1` [Compound 6, (E)-(S,2E,6E)-9-((S)-5-(2,5-dihydroxyphenyl)-2-oxo-2,5-dihydrofuran-3-yl)-5-hydroxy-6-(hydroxymethyl)-2-methylnona-2,6-dien-1-yl 3-(4-hydroxyphenyl)acrylate], the half-inhibitory concentration (IC50) in series [1] (setting [6]) is 85.4 ± 2.82 µM; in series [2] (Homo sapiens), 64.25 ± 0.37 µM; in series [3] (Homo sapiens, A549, 48 h), above 160 µM. In addition, the “cytotoxic activity (cells sensitive to compound), KYSE30” value in series [1] is “sensitive”. The “cytotoxic activity (cells sensitive to compound), BGC-823” value in series [2] is on record as “sensitive”. In series [4], the IC50 at 48 h is above 160 µM.

As to `C/C(=C/CC/C(=C/C(=O)c1cc(O)ccc1O)C(=O)O)CO` [Compound 7, (2Z,5Z)-2-(2-(2,5-dihydroxyphenyl)-2-oxoethylidene)-7-hydroxy-6-methylhept-5-enoic acid], the IC50 in series [1] (setting [6]) was above 160 µM; in series [2] (Homo sapiens), above 160 µM; in series [3] (Homo sapiens, A549, 48 h), above 160 µM. The IC50 at 48 h in series [4] was above 160 µM.

A word on the IC50: it is the concentration at which inhibition is half-maximal. Low values mean greater potency in that assay, high ones weaker potency in that assay.
